The text below walks through data of ChEMBL document CHEMBL5576107, “Wajeepeptin, a Cytotoxic and Antitrypanosomal Cyclic Depsipeptide from a Marine Moorena sp. Cyanobacterium” (J Nat Prod, 2024).

Assay [1] has as its system Trypanosoma brucei rhodesiense. The assay can be described thus: Antitrypanosomal activity against Trypanosoma brucei rhodesiense IL-1501 measured after 69 hrs by alamar blue staining based microplate fluorescence assay. The format is functional, organism-based. Conditions: IL-1501, 69 h. For orientation: Resazurin is reduced to fluorescent resorufin, in cell work by metabolically active cells.

A further assay deals with Plasmodium falciparum. Put plainly: Antimalarial activity against synchronized asexual blood stage Plasmodium falciparum 3D7 at 10 uM measured after 72 hrs by LDH assay. The format is functional, organism-based.
For the next assay, the system named is HeLa. The assay can be described thus: Antiproliferative activity against human HeLa cells measured after 72 hrs by MTT assay. The format is functional, cell-based.

A word on the IC50: it is the concentration needed to halve the response being measured. Read a low IC50 as inhibition by little substance.

The source made the active and inactive calls. The calls are words filed in the database; no cut-off is given here. Starred links: 1 amine or outer side, 2 acyl side, 3 side chain; linkers in the order of their positions; H or OH if unused. Non-standard residues stand in square brackets, D forms with d. Residues, ends and D or L forms follow the SMILES beside them. X1 = CC[C@@H](N[*:1])[C@H](C)C(=O)[*:2]; NMeI = CC[C@H](C)[C@H](NC)C(=O)O; NMeV = CN[C@H](C(=O)O)C(C)C; Hiv = CC(C)[C@H](O)C(=O)O; NMeA = CN[C@@H](C)C(=O)O; Lac = C[C@H](O)C(=O)O

On to `CC[C@H](C)[C@H]1C(=O)N[C@@H](C)C(=O)N(C)[C@@H](C(C)C)C(=O)N(C)[C@@H](C)C(=O)N[C@@H](C(C)C)C(=O)N(C)[C@@H](C(C)C)C(=O)O[C@@H](C)C(=O)N[C@H](CC)[C@H](C)C(=O)O[C@@H](C(C)C)C(=O)N1C` (cyclo(A[NMeV][NMeA]V[NMeV][Lac][X1][Hiv][NMeI])), for which the IC50 in assay [1] worked out at 730 nM; in the assay with HeLa, 3700 nM. Besides, in the assay with Plasmodium falciparum, the result was inactive.

Take `N=C(N)c1ccc(OCCCCCOc2ccc(C(=N)N)cc2)cc1` [PENTAMIDINE]: the half-maximal inhibitory concentration (IC50) in assay [1] amounted to 6.3 nM. This counts as single-digit nanomolar.
